Assay results as given in US20210153484A1, “Humanized Mouse Model” (The Wistar lnstitute, priority 2018, published 2021).
Entries after “also recorded” stand apart in the source; their conditions may differ.

Tests used:
human γ/δ+ T-cells = assay: Human T γ/δ cells in reconstituted Hu-mice treated with HMBPP (IHC); assay type: in vivo, mouse; settings: HMBPP 50 mg/kg i.p.
Text: FIGS. 6A-6C illustrate the human immune subpopulation in spleen, thymus, lymph node, small intestines (SI) and lungs of humanized mice. […] Mouse SI and lungs show presence of IgA+ and IgE+ cells (left and right panels) as determined by mouse anti-human IgA or […] antibodies. Minimal staining of mouse cells was observed when the tissue sections were stained with anti-mouse specific antibodies (See FIG. 23). […] Mouse spleen (left panels; a), thymus (middle panels) and mesenteric lymph nodes (right panels) show presence of CD4+ (top panels) and CD8+ (bottom panels) T-cells as determined by IHC staining using anti-human CD4 or CD8 antibodies. […] Presence of T γ/δ cells were determined in a IHC staining by using mouse anti-human TcR γ/δ antibody.
Besides the presence of human CD45+ cells, the presence of monocytes/myeloid lineage cells HLA DR+, CD33+, CD15+, CD11b+ and CD14+ was observed (FIG. 5D). […] B-cells are fully functional, as antigen specific IgG were detected in circulating blood (see anti-hTERT response below), and IgA and IgE with unknown specificity in the mucosal layers of small intestines and the lungs (FIG. 6B, FIG. 23). Human CD4+ and CD8+ subpopulations of T-cells were detected in spleen, thymus and mesenteric lymph node tissues (FIG. 6C). […]

[1] = tested on: WM3629 [HLA-A3] melanoma cells; assay: Anti-PD1 therapy in Hu-mice melanoma model, WM3629 tumors; assay type: in vivo, mouse; settings: anti-PD1 10 mg/kg i.p. weekly
Protocol: (§1) FIGS. 8A-8H illustrate functional characterization of human immune cells in humanized mice. FIGS. 8A-8C show T- and B-cell response to hTERT vaccine. FIG. 8A is a schema for hTERT DNA vaccination. Hu-mice received a total of 3 injections of hTERT vaccine (hTERT DNA [50 μg; i.m] followed by electroporation) every 2 weeks and the mice were sacrificed 1 week after the last injection to determine T- and B-cell responses. […] Spleen cells from Hu-mice (n=3) were stimulated overnight (18 h) with pools of overlapping hTERT peptides (15 mer; 2 μg/ml/peptide) spanning the entire hTERT protein. Human IFNγ was detected in ELISPOT assay using a kit. […] Endpoint binding titer was determined in sera of hTERT vaccinated mice after 3 immunizations and compared to sera from NSG mice as controls. […] Tumor growth measurements are recorded using digital caliper by an independent researcher. […]
(§2) All animal experiments were performed according to protocols approved by the Wistar Institute's Institutional Animal Care and User Committee (IACUC). […] Six to 8 weeks (>50 days) later, presence of human immune cells was monitored by multi-color flow cytometry using 18 color BD LSR II Analyzer (BD Biosciences; Somasundaram et al. Nat. Commun. 2017, 8(1):607). […] Tumors were measured twice a week using digital calipers.

[2] = tested on: tumor-infiltrating immune cells; assay: IHC, MassCyTOF and RNA-seq/CIBERSORT analysis of tumors from anti-PD1 treated Hu-mice; assay type: in vivo, mouse
Protocol: (§3) IHC staining was performed as previously described (Somasundaram et al 2017). Briefly, tissue sections were subjected to antigen retrieval by incubation with Target Retrieval Solution (Citrate [S1699] or Tris-EDTA buffers [S2367]; Agilent-DAKO, Santa Clara, Calif.) kit at 95° C. for 20 min and subsequently incubated with primary antibodies with optimum dilutions (FOXP3 [1:10]; CD4, HLA class I, HMB45 and mast cell tryptase [all at 1:100 dilution]; CD68, IgA and IgE [all at 1:400 dilution] and CD8 [1:500 dilution]. For detection of primary antibodies slides were incubated with anti-mouse, anti-rat or anti-rabbit antibodies at 1:1000 dilution and visualized by DAB (SK-4100) or AEC (SK-4200; both Vector Laboratories, Burlingame, Calif.) chromogens.
CyTOF staining was performed as previously described (Wang et al 2019). Briefly, carrier-free antibodies were commercially obtained and tagged with lanthanide metals using the Maxpar X8 metal conjugation kit from Fluidigm^R (201300, Ontario, Canada). Antigen retrieval was performed on deparaffinized tissue sections at 95° C. for 30 min in Tris/EDTA buffer, slides were cooled, blocked with 3% BSA-PBS solution and incubated with cocktail of antibodies (100 ul) overnight at 4° C. Next day slides were washed 3× with PBS and labeled with 1:400 dilution of Intercalator-Ir (Fluidigm 201192B) in PBS for 30 min at RT. Slides were washed with water (3×) and air dried for 30 mins before image mass cytometry acquisition using Fluidigm Hyperion Imaging System.
RNAseq was done using ScriptSeq RNA-seq library preparation kit (Illumina, [BHMR1205], San Diego, Calif.). Quality control of RNA and DNA library was done using the Tapestation 4200 and Bioanalyzer 2100 system (Agilent, Santa Clara, Calif.). Library quantification was done using the Kapa Library Quantification qPCR kit (Roche, [KK4854], Pleasanton, Calif.) and subjected to a 75 bp paired-end sequencing run on Illumina's NExtSeq 500 high output kit following the manufacturer's protocol. RNA-seq analysis was performed using RSEM v1.2.12 software and downstream expression analysis was done using Differential2 (Shuai Wu et al. Nature Commun. 2018; 9: 4166). RNA-seq data was used to enumerate tumor-infiltrating leukocytes using CIBERSORT, an analytical tool available online (cibersort.stanford.edu) (Chen et al. Methods Mol. Biol. 2018; 1711:243-259).
In order to understand the phenomenon of mixed therapy responses to anti-PD1 treatment, IHC, multiplexed imaging using MassCyTOF and RNA-seq was performed on tumors obtained from anti-PD1 treated Hu-mice and they were compared with control Ig treated mice. […]

mast cells in tumor = assay: Mast cell immunostaining of melanoma patients' tumors after anti-PD1 therapy; assay type: in vivo, human; settings: compared to untreated individuals
Protocol: as §3

[3] = tested on: A375 [HLA-A2] melanoma cells; assay: Anti-PD1 therapy in Hu-mice melanoma model, A375 tumors; assay type: in vivo, mouse; settings: anti-PD1 10 mg/kg i.p. weekly
Protocol: as §1, §2

451LU melanoma = assay: Anti-PD1 therapy in Hu-mice melanoma model, aggressively growing 451LU tumors; assay type: in vivo, mouse
Protocol: All animal experiments were performed according to protocols approved by the Wistar Institute's Institutional Animal Care and User Committee (IACUC). NOD/LtSscidIL2Rγ^null (NSG) mice were inbred at The Wistar Institute under license from the Jackson Laboratory. For humanization, fetal liver and thymus were obtained from the same donor (18-22 weeks of gestation). NSG mice (6 to 8 weeks) received thymus graft (1 mm^3) in sub-renal capsule 24 h post myeloablation using Busulfan (30 mg/kg, i.p.; Sigma-Aldrich [B2635], St. Louis, Mo.). This is immediately followed by injection of autologous liver-derived CD34^+ hematopoietic stem cells (10^5 cells/mouse, i.v., FIG. 5A) that was magnetically sorted by microbeads conjugated with anti-human CD34 (Miltenyi Biotec., [130-046-703], Auburn, Calif.; Chen et al. Bio Protoc. (2013) 3(23)). Six to 8 weeks (>50 days) later, presence of human immune cells was monitored by multi-color flow cytometry using 18 color BD LSR II Analyzer (BD Biosciences; Somasundaram et al. Nat. Commun. 2017, 8(1):607). To accelerate human immune cell reconstitution mice received AAV8 encoding human IL-3, IL-7 and GM-CSF (FIG. 5; FIG. 20A; 10^8; iv; Wu, . . . Ertl., et al 2013). […] Tumors were measured twice a week using digital calipers.

[4] = compared to control IgG or non-reconstituted NSG mice treated with anti-PD1, listed as Anti-PD1 antibody
[5] = compared to control IgG or non-reconstituted NSG mice treated with anti-PD1, listed as anti-PD1 antibody

Molecule	human T γ/δ cells in tissues (human γ/δ+ T-cells)	tumor growth of WM3629 melanoma [1, 4]	tumor growth of WM3629 melanoma [1, 5]	immune (leukocyte) infiltration in tumor sections ([2]; H&E/IHC, compared to control IgG treated / untreated Hu-mice)	transcription of chemokine genes (CCL2, CCL3, CCL4, CCLS, CXCL9, CXCL10 and CXCL11) ([2]; RNA-seq of tumors after anti-PD1 treatment)	mast cell numbers in tumors (mast cell tryptase IHC) ([2]; compared to control Ig treated mice)	tumor resident mast cells / mast related genes by CIBERSORT of RNA-seq data ([2]; tumors from Hu-mice with and without anti-PD1)	mast cells in melanoma patients' tumor (mast cells in tumor)	tumor growth of A375 melanoma [3, 4]	tumor growth of A375 melanoma [3, 5]	immune infiltrating cells by IHC staining (451LU melanoma; 451Lu tumors in Hu-mice after anti-PD1)	tumor growth of 451LU melanoma (451LU melanoma; Hu-mice, aggressively growing metastatic melanoma)
C/C(=C\COP(=O)(O)OP(=O)(O)O)CO [HMBPP, hydroxy-2-methyl-2-butenyl 4-pyrophosphate]	further expanded											
anti-PD1: anti-PD-1 antibody (Keytruda, Merck, Rahway, N.J.)		restrict tumor growth	significantly restricted tumor growth	Higher levels of immune infiltration; also recorded: dense leukocyte infiltration	higher transcription	increased numbers	higher presence of tumor resident mast cells; also recorded: higher expression of mast related genes	increased presence of mast cells	restrict tumor growth	significantly restricted tumor growth	No immune infiltrating cells were detected	negligible effect on growth; also recorded: unable to restrict tumor growth
